Like-named read-outs stand apart in the source and are kept apart here.
Experiments:
HG2L1.1c3 cells = assay: TCDD-inducible luciferase activity, stably transfected clonal cell line; assay type: cell-based, human; settings: 24 h
Procedure: (§1) Using the stabilized luciferase assay system (purchased from Promega), luciferase activity in an aliquot of the cleared lysed cell supernatant (20 μl) was determined by mixing it with 100 µl of luciferase assay reagent (purchased from Promega) and measuring the resulting luminescence in a Turner Luminometer or Dynatech ML3000 microplate luminometer (light output was integrated over 1 minute after a delay time of 30 seconds).
Using a microplate adaptation of the method reported by Bradford in "A Rapid Sensitive Method for the Quantitation of Microgram Quantities of Protein Utilizing the Principle of Protein-Dye Binding", Anal. Biochem., […], pp. 248-254 (1976), luciferase activity was standardized to the protein concentration of the supernatant (with bovine serum albumin as the protein standard). Because of instrument differences in luminescence measurement and data output, luciferase activity was determined as relative light units (RLU) per microgram of protein, which was converted to milligram of protein as reported in the Tables below. […]
More particularly, isolated clones were grown until confluent, and then incubated in the absence or presence of TCDD (1 nM solubilized in DMSO) for 24 hours. After the incubation, luciferase activity was determined as described above.

[1] = system: Hepa1-BPRc1 cells (defective arnt protein); assay: TCDD-inducible luciferase activity, transient transfection with pGudLuc1.1; assay type: cell-based, mouse
Procedure: (§2) In general, the expression vectors pGudLuc1.0 and pGudLuc1.1 were prepared as follows. A 1330-bp HindIII fragment or an 1810-bp HindIII fragment isolated from the plasmid, pMpap1.0 or pMpap1.1, respectively (see, El-Fouly et al., supra), was subcloned into the HindIII site immediately upstream of the luciferase gene in the plasmid pGL2-basic (purchased from Promega).
(§3) More specifically, the following cells were obtained from the source indicated. Wild-type and AhR-defective (BPRc1 and TAO, respectively) mouse hepatoma (Hepa1c1c7) cells (Hepa1), derived from a C57B1 mouse liver tumor, were obtained from J. P. Whitlock, Jr. (Stanford University). These cells were grown as previously described by Miller et al. in "Biochemical and Genetic Analysis of Variant Mouse Hepatoma Cells Defective in the Induction of Benzo(a)pyrene Metabolizing Enzyme Activity", J. Biol. Chem., Vol. 258, pp. 3523-3527 (1983). Additionally, mouse hepatoma (MLE/BV) cells, derived from a spontaneously immortalized C3H/HeN mouse liver cell, were obtained from B. V. Madhukar (Indiana University School of Medicine, Indianapolis, Ind.) and were grown as described for the Hepa1 cells. Rat hepatoma (H4IIe) cells, guinea pig intestinal adenocarcinoma (GPC16) cells, hamster lung (AHL) cells, human hepatoma (HepG2) cells, human breast tumor (MCF7) cells, and human intestinal epithelial (LS180) cells were obtained from the American Type Culture Collection (Rockville, Md.). Until transfection, all of the cells were maintained according to their respective cell-type-specific culture protocols.
(§4) Transfection was accomplished as follows. Using polybrene as previously described by Helferich et al. in "Photooxidized Products of Tryptophan Can Act as Dioxin Agonists", Mol. Pharmacol., Vol. 40, pp. 674-678 (1991), plates of cells (approximately 80% confluent) were transiently transfected with the desired plasmid (15 μg). Then, the transfected cells were allowed to grow for 48 hours, followed by the addition of either DMSO (1 μl/ml) or TCDD (1 nM) solubilized in DMSO, which was followed by incubation for 24 hours. Next, the plates were transferred onto ice, and the media were removed, after which the plates were rinsed twice with cold PBS. Then, 200 μl of luciferase lysis buffer (purchased from Promega) was used to lyse the cells. The lysed cell samples were collected and transferred into a microfuge tube. Cell debris was pelleted by centrifugation, and the supernatants were collected. The supernatant samples were assayed for TCDD-inducible luciferase activity in the following manner.
as §1
(§5) Using a microplate adaptation of the method reported by Bradford in "A Rapid Sensitive Method for the Quantitation of Microgram Quantities of Protein Utilizing the Principle of Protein-Dye Binding", Anal. Biochem., […], pp. 248-254 (1976), luciferase activity was standardized to the protein concentration of the supernatant (with bovine serum albumin as the protein standard). Because of instrument differences in luminescence measurement and data output, luciferase activity was determined as relative light units (RLU) per microgram of protein, which was converted to milligram of protein as reported in the Tables below.

MLE-BV cells = assay: as above; assay type: cell-based, mouse
Procedure: as §2, §3, §4, §1, §5

[2] = system: Hepa1-TAO cells (reduced levels of AhR); assay: as above; assay type: cell-based, mouse
Procedure: as §2, §3, §4, §1, §5

[3] = system: human intestinal epithelial LS180 cells; assay: as above; assay type: cell-based
Procedure: as §2, §3, §4, §1, §5

[4] = system: human hepatoma HepG2 cells; assay: as above; assay type: cell-based
Procedure: as §2, §3, §4, §1, §5

[5] = system: human breast tumor MCF7 cells; assay: as above; assay type: cell-based
Procedure: as §2, §3, §4, §1, §5

[6] = system: mouse hepatoma Hepa1c1c7 cells (wild type); assay: as above; assay type: cell-based
Procedure: as §2, §3, §4, §1, §5

[7] = system: guinea pig intestinal adenocarcinoma GPC16 cells; assay: as above; assay type: cell-based
Procedure: as §2, §3, §4, §1, §5

rat hepatoma H4IIE cells = assay: as above; assay type: cell-based
Procedure: as §2, §3, §4, §1, §5

H1L1.1 cells = assay: Time course of luciferase induction by TCDD (FIG. 2); assay type: cell-based, mouse; settings: 1 nM TCDD in DMSO
Procedure: Specifically, with respect to the graph of FIG. 2, the time course of luciferase induction by TCDD was examined in order to determine the optimal time period for measurement of luciferase activity in the H1L1.1 cells. In these experiments, the cells were treated with 1 nM of TCDD solubilized in DMSO or with only DMSO. The luciferase activity was determined as described above at various times up to 32 hours post exposure. Values represent the mean ± the standard evaluation of at least triplicate determinations.

[8] = Mus musculus, Luc1.1, TCDD 1 nM vs DMSO

Clc1cc2c(cc1Cl)Oc1cc(Cl)c(Cl)cc1O2 [TCDD, 2,3,7,8-tetrachlorodibenzo-para-dioxin] was tested, and the fold induction (HG2L1.1c3 cells; Homo sapiens, TCDD 1 nM vs DMSO) was 29, the “Luciferase activity, TCDD in DMSO” value (HG2L1.1c3 cells; TCDD 1 nM, mean ± SD of triplicate assays) was 25.04 ± 1.88 RLU/mg protein and the “Luciferase activity, TCDD in DMSO” value ([1]; Luc1.1, TCDD 1 nM, 24 h) was 0.8 RLU/mg protein. For the same molecule, the fold induction [1, 8] was 1.6, the “Induction of luciferase activity” value ([1]; pGudLuc1.1, TCDD 1 nM) was “failure of TCDD treatment to induce luciferase activity” and the “Luciferase activity, TCDD in DMSO” value (MLE-BV cells; Luc1.1, TCDD 1 nM, 24 h) was 13.2 RLU/mg protein. For the same molecule, the fold induction (MLE-BV cells; [8]) was 66, the “Luciferase activity, TCDD in DMSO” value ([2]; Luc1.1, TCDD 1 nM, 24 h) was 1.8 RLU/mg protein and the fold induction [2, 8] was 4.5. The “Inducibility of luciferase activity” value ([2]; pGudLuc1.1, TCDD 1 nM) was “reduced inducibility”, the fold induction ([3]; Homo sapiens, LS180, Luc1.1, TCDD 1 nM vs DMSO) was 18.6 and the “Luciferase activity, TCDD in DMSO” value ([3]; Luc1.1, TCDD 1 nM, 24 h) was 26.0 RLU/mg protein. The fold induction ([4]; Homo sapiens, HepG2, Luc1.1, TCDD 1 nM vs DMSO) was 66.3, the “Luciferase activity, TCDD in DMSO” value ([4]; Luc1.1, TCDD 1 nM, 24 h) was 690 RLU/mg protein and the fold induction ([5]; Homo sapiens, MCF7, Luc1.1, TCDD 1 nM vs DMSO) was 33.4. For the same molecule, the “Luciferase activity, TCDD in DMSO” value ([5]; Luc1.1, TCDD 1 nM, 24 h) was 63.5 RLU/mg protein, the fold induction ([6]; Luc1.1, TCDD 1 nM vs DMSO, 0.001 µM) was 60 Fold and the “Luciferase activity, TCDD in DMSO” value ([6]; Luc1.1, TCDD 1 nM, 24 h, mean of triplicate transfections) was 12.1 RLU/mg protein. The fold induction ([6]; Mus musculus, Hepa-1c1c7, Luc1.1, TCDD 1 nM vs DMSO, read-out: Fold induction) was 60.5, the fold induction ([7]; Cavia porcellus, Luc1.1, TCDD 1 nM vs DMSO) was 7.6 and the “Luciferase activity, TCDD in DMSO” value ([7]; Luc1.1, TCDD 1 nM, 24 h) was 28.8 RLU/mg protein. For the same molecule, the “Luciferase activity, TCDD in DMSO” value (rat hepatoma H4IIE cells; Luc1.1, TCDD 1 nM, 24 h) was 34.2 RLU/mg protein, the fold induction (rat hepatoma H4IIE cells; Rattus norvegicus, H4IIE, Luc1.1, TCDD 1 nM vs DMSO) was 28.5 and the “Time at which TCDD-inducible luciferase activity was detectable” value (H1L1.1 cells) was 2 h. The “Time by which luciferase activity decreased to a stable activity” value (H1L1.1 cells) was at most 12 h and the “Time of peak TCDD-inducible luciferase activity” value (H1L1.1 cells) was “about 4 hours”.
